From patent US12390470B2, “1-methylxanthine-based bioactive composition and method of use thereof” (Ingenious Ingredients, LP, priority 2021, dated 2025)

Key:
[1] = Organ weight (liver, heart), Example 1; format: in vivo; conditions: mice, 28 days
Experimental: (§1) Twenty-four 8-week-old male Swiss Albino mice were housed in an animal room at a constant temperature (22±3° C.) and humidity (30%-70%) under a 12:12 h light-dark cycle with standard laboratory diet (Purina 5L79, Rat and Mouse 18% protein; PMI Nutrition International, Brentwood, MO, USA). Distilled water was provided ad libitum. All animal experiments were reviewed and approved by the Institutional Animal Ethical Committee (IAEC) of Radiant Research Services Pvt. Ltd (Bangalore, India). All research was conducted in accordance with the guidelines of the committee for the purpose of control and supervision of experiments on animals.
(§2) After one week of acclimation, the animals were randomly divided by body weight into three groups (n=8 per group in each test) for oral treatment once a day, at approximately same time each day (±1 hour), for 28 consecutive days: (1) vehicle control or (2) 1-methylxanthine or (3) 1-methylxanthine plus paraxanthine. The dose administered to the mice was calculated using US Food and Drug Administration for human equivalence doses (HED), assuming a human weight of 60 kg. […] Food intake was monitored daily while water intake was ad libitum. BW was recorded weekly. […]

dopamine = test: Dopamine level in young and old rats; format: in vivo; conditions: old rats
Experimental: as §1, with “young (6-8 Week) and twenty-four old (14-16 Months)” for “8-week-old male”, “Wistar rats” for “mice”
After one week of acclimation, the animals were randomly divided by body weight and age into six groups (n=8 per group in each test) for oral treatment once a day, at approximately same time each day (±1 hour), for 10 consecutive days: (1) vehicle control or (2) 1-methylxanthine or (3) 1-methylxanthine plus paraxanthine. The dose administered to the rat was calculated using US Food and Drug Administration for human equivalence doses (HED), assuming a human weight of 60 kg. […] Food intake was monitored daily while water intake was ad libitum. […] Body weight was recorded weekly. […]

participants = test: Anxiety by Visual Analog Scale; format: in vivo, human; set-up: Anxiety (Visual Analog Scale) / Anxiety (VAS) MEAN (30-180) / Anxiety (VAS) Δ vs. CA: scale not given here
Experimental: All supplements were orally ingested with 8 fluid ounces of cold tap water. Anxiety was measured by Visual Analog Scale (VAS) at baseline, 30, 60, 90, 120 and 180 minutes after ingestion.

male Swiss Albino mice = test: Treadmill endurance test; format: in vivo
Experimental: as §1
After one week of acclimation, the animals were randomly divided by body weight into three groups (n=8 per group in each test) for oral treatment once a day, at approximately same time each day (±1 hour), for 28 consecutive days: (1) vehicle control or (2) 1-methylxanthine or (3) 1-methylxanthine plus paraxanthine. The dose administered to the mice was calculated using US Food and Drug Administration for human equivalence doses (HED), assuming a human weight of 60 kg. The following HED was used in this study: 100 mg 1-methylxanthine (Ingenious Ingredients, L.P Lewisville, TX, USA; mouse dose: 20.5 mg/kg bw/day), or 100 mg 1-methylxanthine (Ingenious Ingredients, L.P Lewisville, TX, USA; mouse dose: 20.5 mg/kg bw/day) plus 100 mg paraxanthine (ENFINITY™, Ingenious Ingredients, L.P Lewisville, TX, USA; mouse dose: 20.5 mg/kg bw/day). 0.5% Carboxy Methyl Cellulose sodium was used as vehicle and the test item formulations were prepared daily. Dosing was conducted via oral gavage using disposable polypropylene syringes with sterilized stainless steel gavage tubes. Food intake was monitored daily while water intake was ad libitum. BW was recorded weekly. […]
On 28th day of each respective treatment, all animals were subjected to a muscle endurance test. […] Distance traveled (cm) was measured as a marker of exercise performance.

gastrocnemius = test: Gastrocnemius muscle mass after 28 days supplementation; format: in vivo, mice
Experimental: as §1, §2

SMILES: Cn1c(=O)[nH]c2nc[nH]c2c1=O [1-methylxanthine, 1-Methyl-3H-purine-2,6-dione]
- Heart weight [1]: 189.13 ± 0.64 mg
- Liver weight [1]: 1847.25 ± 47.92 mg
- dopamine level (dopamine): 474.42 ± 13.49 ng/L
- lower feelings of anxiety in comparison to CA (participants; 200 mg oral): 21%
- Anxiety (VAS) MEAN (30-180) (participants; Average): 58.8
- Anxiety (VAS) Mean Δ from 0 (participants; Average): +1.3
- Anxiety (VAS) MEAN (30-180) (participants; Person one): 48.6
- Anxiety (VAS) Mean Δ from 0 (participants; Person one): −1.4
- Anxiety (VAS) Δ vs. CA (participants; Person one): −26.0
- Anxiety (Visual Analog Scale) (participants; Person one, 30 min): 51
- Anxiety (Visual Analog Scale) (participants; Person one, 60 min): 40
- Anxiety (Visual Analog Scale) (participants; Person one, 90 min): 40
- Anxiety (Visual Analog Scale) (participants; Person one, 120 min): 51
- Anxiety (Visual Analog Scale) (participants; Person one, 180 min): 61
- Anxiety (Visual Analog Scale) (participants; Person one, time 0, 200 mg oral): 50
- Anxiety (VAS) MEAN (30-180) (participants; Person two): 69.0
- Anxiety (VAS) Mean Δ from 0 (participants; Person two): +4.0
- Anxiety (VAS) Δ vs. CA (participants; Person two): −5.2
- Anxiety (Visual Analog Scale) (participants; Person two, 30 min): 65
- Anxiety (Visual Analog Scale) (participants; Person two, 60 min): 65
- Anxiety (Visual Analog Scale) (participants; Person two, 90 min): 65
- Anxiety (Visual Analog Scale) (participants; Person two, 120 min): 75
- Anxiety (Visual Analog Scale) (participants; Person two, 180 min): 75
- Anxiety (Visual Analog Scale) (participants; Person two, time 0, 200 mg oral): 65
- Distance travelled on treadmill (male Swiss Albino mice; baseline): 269.6±33.0 cm
- changes in treadmill performance greater than control (male Swiss Albino mice; baseline to day 28): 10.0%
- Distance travelled on treadmill (male Swiss Albino mice; day 28, oral 20.5 mg/kg bw/day each, 28 days): 1,641.3±74.6 cm
- gastrocnemius mass greater compared to control (gastrocnemius; 28 days): 1.9%
- gastrocnemius mass (gastrocnemius; 28 days after supplementation): 161.1 ± 4.3 mg
